Assay results reported in US20260102628A1, “METHOD AND APPARATUS FOR MONITORING OF PHOTODYNAMIC-THERAPY PRECURSOR STATES FOR ENHANCED THERAPEUTIC EFFICIENCY” (priority 2022, published 2026).

Assay: Optical fiber-coupled TRAST curves of IR700 in tissue and PBS buffer solution, with and without ascorbic acid
Format: physicochemical
Conditions: IR700 in tissue or PBS buffer solution, FIG. 6B
Text: FIG. 6A illustrates the presently disclosed embodiment of a system for PDT (611), wherein the system is arranged such that the same excitation-light-delivering fiber(s) also are arranged as detection fiber(s). The system may thus be arranged to carry out a method for PDT as disclosed elsewhere herein.
The system (611) typically comprises an intensity-modulated excitation light (605), e.g. from a laser (601) and an AOM (602). The excitation light (605) is applied, e.g. lensed by an objective (603), via a gradient-index multimode optical fiber (604), into a sample (609, tissue or water solution). […] The fluorescence plotted in the TRAST curves (612), corresponds to the (average) fluorescence from the PS compounds generated by the (modulated) excitation at the fiber end, which was collected (606) by the same fiber (604), passed through the fiber, through a dichroic mirror (607), and was then detected in a region-of-interest (ROI) within the field of detection of a camera (608). While only one fiber is shown in FIG. 6A, the system may comprise multiple fibers, into which excitation light from one or several lasers is introduced, and via which fluorescence detected from their fiber-ends is fed to different ROIs detected on the camera pixel array, and/or to a set of point detectors. […]

Row | Structure (SMILES) | time range of the prominent relaxation in the TRAST curves, attributed to build-up of a photo-reduced radical state population in IR700 (after addition of ascorbic acid) | time range of the faster major relaxation in the TRAST curves, attributed to T1 build-up
1 | O=C1O[C@H]([C@@H](O)CO)C(O)=C1O [ascorbic acid] | ~0.1 ms | 
2 | C[Si](C)(CCC[N+](CCCS(=O)(=O)[O-])(CCCS(=O)(=O)[O-])CCCS(=O)(=O)[O-])O[Si]1(O[Si](C)(C)CCC[N+](CCCS(=O)(=O)[O-])(CCCS(=O)(=O)[O-])CCCS(=O)(=O)[O-])n2c3c4ccccc4c2N=C2N=C(N=c4c5ccccc5c(n41)=NC1=NC(=N3)c3ccccc31)c1cccc(OCCCOC(=O)NCCCCCC(=O)ON3C(=O)CCC3=O)c12.[Na+].[Na+].[Na+].[Na+] (centres unmarked) [IR700, IRdye700DX] |  | microsecond time range
